Data published in patent US7598241B2, “Carboxamide derivatives and their use as factor Xa inhibitors” (Merck Patent GmbH, priority 2003, dated 2009).

Legend:
TF/FVIIa = TF/FVIIa (Homo sapiens, UniProt P08709); assay: TF/FVIIa inhibition (TF/FVIIa-IC50); type: biochemical
Source text: Coagulation factor VIIa initiates the extrinsic part of the coagulation cascade after binding to tissue factor and contributes to the activation of factor X to give factor Xa. Inhibition of factor VIIa thus prevents the formation of factor Xa and thus subsequent thrombin formation. • The inhibition of factor VIIa by the compounds according to the invention and the measurement of the anticoagulant and antithrombotic activity can be determined by conventional in-vitro or in-vivo methods. A conventional method for the measurement of the inhibition of factor VIIa is described, for example, by H. F. Ronning et al. in Thrombosis Research 1996, 84, 73-81.

factor Xa = factor Xa (Homo sapiens, UniProt P00742); assay: Factor Xa inhibition (FXa-IC50); type: biochemical
Source text: The inhibition of factor Xa by the compounds according to the invention and the measurement of the anticoagulant and antithrombotic activity can be determined by conventional in-vitro or in-vivo methods. A suitable method is described, for example, by J. Hauptmann et al. in Thrombosis and Haemostasis 1990, 63, 220-223.
The inhibition of factor Xa can be measured, for example, by the method of T. Hara et al. in Thromb. Haemostas. 1994, 71, 314-319.

Sequence of TF/FVIIa (P08709 213-466 limits assumed): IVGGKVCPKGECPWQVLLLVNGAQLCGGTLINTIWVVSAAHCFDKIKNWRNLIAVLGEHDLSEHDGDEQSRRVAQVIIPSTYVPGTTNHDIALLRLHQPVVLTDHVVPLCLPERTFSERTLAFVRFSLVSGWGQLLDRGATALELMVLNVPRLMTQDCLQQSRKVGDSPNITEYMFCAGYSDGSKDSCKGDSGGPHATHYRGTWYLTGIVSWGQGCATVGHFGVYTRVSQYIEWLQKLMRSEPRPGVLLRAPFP
Sequence of TF/FVIIa (P08709 61-212 partner limits assumed): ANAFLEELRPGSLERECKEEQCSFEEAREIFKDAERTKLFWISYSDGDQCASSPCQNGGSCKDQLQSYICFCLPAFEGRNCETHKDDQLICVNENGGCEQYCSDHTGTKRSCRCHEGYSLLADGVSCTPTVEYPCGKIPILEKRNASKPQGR
Sequence of TF/FVIIa (P13726 33-295 partner): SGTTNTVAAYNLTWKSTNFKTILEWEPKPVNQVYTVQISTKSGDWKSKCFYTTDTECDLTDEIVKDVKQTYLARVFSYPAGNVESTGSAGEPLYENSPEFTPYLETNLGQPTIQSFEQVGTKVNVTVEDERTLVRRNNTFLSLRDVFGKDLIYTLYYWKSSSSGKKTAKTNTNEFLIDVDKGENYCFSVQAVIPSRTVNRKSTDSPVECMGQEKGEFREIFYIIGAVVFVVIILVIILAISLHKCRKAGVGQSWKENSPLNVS
Sequence of factor Xa (P00742 235-488 limits assumed): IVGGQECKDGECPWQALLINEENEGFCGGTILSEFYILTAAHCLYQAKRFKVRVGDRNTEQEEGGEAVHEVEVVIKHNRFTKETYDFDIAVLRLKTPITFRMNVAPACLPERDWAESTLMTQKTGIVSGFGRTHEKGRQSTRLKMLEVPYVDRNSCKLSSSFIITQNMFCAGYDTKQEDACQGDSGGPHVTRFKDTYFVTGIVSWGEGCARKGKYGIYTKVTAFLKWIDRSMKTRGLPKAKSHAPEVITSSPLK
Sequence of factor Xa (P00742 41-179 partner limits assumed): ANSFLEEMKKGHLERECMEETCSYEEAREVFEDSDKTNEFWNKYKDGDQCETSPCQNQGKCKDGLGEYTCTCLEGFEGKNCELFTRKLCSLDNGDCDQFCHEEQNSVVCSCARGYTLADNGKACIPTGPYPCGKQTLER

CS(=O)(=O)CCC(NC(=O)Nc1ccc(Cl)cc1)C(=O)Nc1ccc(-n2ccncc2=O)cc1 (stereo not shown) [Compound 1B, 2-[3-(4-chlorophenyl)ureido]-N-[4-(2-oxo-2H-pyrazin-1-yl)phenyl]-4-methanesulfonylbutyramide]
IC50 (TF/FVIIa): 43 nM | IC50 (factor Xa): 42 nM

CS(=O)(=O)C[C@H](NC(=O)Nc1ccc(Cl)cc1)C(=O)Nc1ccc(-n2ccccc2=O)cc1 [Compound 2A, (R)-2-[3-(4-chlorophenyl)ureido]-N-[4-(2-oxo-2H-pyridin-1-yl)phenyl]-3-methanesulfonylpropionamide]
IC50 (TF/FVIIa): 12 nM | IC50 (factor Xa): 6.4 nM

COP(=O)(C[C@@H](NC(=O)Nc1ccc(Cl)cc1)C(=O)Nc1ccc(N2CCOCC2=O)cc1)OC [Compound 1D, (S)-2-[3-(4-chlorophenyl)ureido]-N-[4-(3-oxomorpholin-4-yl)phenyl]-3-(dimethoxyphosphoryl)propionamide]
IC50 (factor Xa): 85 nM

CS(=O)(=O)CCC(NC(=O)Nc1ccc(Cl)cc1)C(=O)Nc1ccc(-n2ccccc2=O)cc1 (stereo not shown) [Compound 1A, 2-[3-(4-chlorophenyl)ureido]-N-[4-(2-oxo-2H-pyridin-1-yl)phenyl]-4-methanesulfonylbutyramide]
IC50 (TF/FVIIa): 28 nM | IC50 (factor Xa): 28 nM
